{"source": "patent US20040072738A1", "about": "“Analogues of thiocoraline and be-22179” (priority 2000, published 2004)", "key": {"[1]": {"assay": "cytotoxic activity in the L1210 assays"}, "[2]": {"assay": "solubility in aqueous buffer", "format": "physicochemical"}, "L1210 cell line": {"system": "L1210 cell line", "assay": "cytotoxic activity in the L1210 assays", "settings": "L1210 assays"}, "supercoiled ΦX174 DNA": {"system": "supercoiled ΦX174 DNA", "assay": "unwinding and rewinding of negatively supercoiled DNA, agarose gel electrophoresis", "format": "biochemical", "source_text": "Confirmation that thiocoraline and BE-22179 bind to DNA with bisintercalation was derived from their ability to induce the unwinding of negatively supercoiled DNA. This was established by their ability to gradually decrease the agarose gel electrophoresis mobility of supercoiled ΦX174 DNA (unwinding) at increasing concentrations followed by a return to normal mobility (rewinding) at even higher concentrations. Under the conditions employed, echinomycin unwound ΦX174 DNA at a 0.044 agent/base pair ratio (FIG. 11 and FIG. 12). Thiocoraline completely unwound ΦX174 DNA at a higher 0.11 agent/base pair ratio, whereas BE-22179 required even higher concentrations producing the unwinding at an agent/base pair ratio of 1.1. […] Thus, the distinctions in 1 and 2 and echinomycin detected here appear to be related to the nature of the cyclic depsipeptide and not the structure of the chromophore.\nFIG. 8 is a table of comparative DNA binding properties. ^aCalf thymus DNA, KB=apparent binding constant determined by fluorescence quenching. The value in paren-theses is the agent/base pair ratio at saturated high-affinity binding and may be considered a measure of the selectivity of binding. ^bAgent/base pair ratio required to unwind negatively supercoiled FX174 DNA (form I to form II gel mobility, 0.9% agarose gel). ^cAgent/base pair ratio required to induce complete rewinding or positive super-coiling of FX174 DNA (form II to form I gel mobility, 0.9% agarose gel). ^dBinding constant established by footprinting at a 5′-CCGC site (FIG. 9).\n(A) Lane 1, untreated supercoiled FX174 DNA, 95% form 1 and 5% form II; lanes 2-8, thiocoraline-treated FX174 DNA; lanes 9-14, echinomycin-treated FX174 DNA. The [agent]-to-[base pair] ratios were 0.022 (lanes 2 and 9), 0.033 (lanes 3 and 10), 0.044 (lanes 4 and 11), 0.066 (lanes 5 and 12), 0.11 (lanes 6 and 13), 0.22 (lanes 7 and 14), and 0.44 (lane 8). (B) Lane 1, untreated supercoiled FX174 DNA, lanes 2-12, BE-22179-treated FX174 DNA. The [agent]-to-[base pair] ratios were 0.022, (lane 2), 0.033 (lane 3), 0.044 (lane 4), 0.066 (lane 5), 0.11 (lane 6), 0.22 (lane 7), and 0.33 (lane 8), 0.44 (lane 9), 0.66 (lane 10), 1.1 (lane 11), and 2.2 (lane 12). (C) Lane 1, untreated supercoiled FX174 DNA, 95% form 1 and 5% form II; lanes 2-8, thiocoraline analogue (27)-treated FX174 DNA. The [agent]-to-[base pair] ratios were 0.022 (lane 2), 0.033 (lane 3), 0.044 (lane 4), 0.066 (lane 5), 0.11 (lane 6), 0.22 (lane 7), and 0.44 (lane 8)."}, "[3]": {"target": "HIV-1 reverse transcriptase (Human immunodeficiency virus type 1 group M subtype B, UniProt P03366)", "assay": "inhibition of HIV-1 reverse transcriptase", "format": "biochemical"}}, "note": "Bridge positions count the residues as written; N and C are the ends. Square brackets hold non-standard residues; d marks the D form. Peptide text beside a SMILES is read from it. I, II: the chains in the order shown. * marks the point of attachment. Quinaldoyl(3-OH,6-OMe) = COc1ccc2nc(C(=O)*)c(O)cc2c1; Quinoxaline2carbonyl = O=C(c1cnc2ccccc2n1)*; Quinaldoyl(3-OH) = O=C(c1nc2ccccc2cc1O)*; Fmoc = O=C(OCC1c2ccccc2-c2ccccc21)*; Quinaldoyl = O=C(c1ccc2ccccc2n1)*; NMeC = CN[C@@H](CS)C(=O)O; Cbz = O=C(OCc1ccccc1)*; NMeDha = C=C(NC)C(=O)O"}
{"smiles": "C=C1C(=O)SC[C@@H](NC(=O)c2nc3ccccc3cc2O)C(=O)NCC(=O)N(C)[C@H]2CSSC[C@@H](C(=O)N1C)N(C)C(=O)CNC(=O)[C@H](NC(=O)c1nc3ccccc3cc1O)CSC(=O)C(=C)N(C)C2=O", "note": "[BE-22179] (I: {Quinaldoyl(3-OH)}-[dC]G[NMeC][NMeDha] / II: {Quinaldoyl(3-OH)}-[dC]G[NMeC][NMeDha]; thioester I:1-II:C, I:C-II:1; disulfide I:3-II:3)", "values": [{"measurement": "IC50", "setting": "[1]", "value": 0.4, "unit": "nM"}, {"measurement": "solubility", "setting": "[2]; Tris-HCl pH 7.4, 75 mM NaCl, read-out: agent concentrations where the compounds are soluble", "value": "1 to 10", "unit": "µM"}]}
{"smiles": "CSC[C@H]1C(=O)SC[C@@H](NC(=O)OCc2ccccc2)C(=O)NCC(=O)N(C)[C@H]2CSSC[C@@H](C(=O)N1C)N(C)C(=O)CNC(=O)[C@H](NC(=O)OCc1ccccc1)CSC(=O)[C@H](CSC)N(C)C2=O", "note": "[Compound 23, [N-Cbz-D-Cys-Gly-NMe-L--Cys-NMe-L--Cys(Me)]2 (Cysteine Thiol) Dilactone] (I: Cbz-[dC]G[NMeC][NMeC](Me) / II: Cbz-[dC]G[NMeC][NMeC](Me); thioester I:1-II:C, I:C-II:1; disulfide I:3-II:3)", "values": [{"measurement": "cytotoxic activity (in words)", "setting": "L1210 cell line", "value": "inactive"}]}
{"smiles": "CSC[C@H]1C(=O)SC[C@@H](NC(=O)c2ccc3ccccc3n2)C(=O)NCC(=O)N(C)[C@H]2CSSC[C@@H](C(=O)N1C)N(C)C(=O)CNC(=O)[C@H](NC(=O)c1ccc3ccccc3n1)CSC(=O)[C@H](CSC)N(C)C2=O", "note": "[Compound 26, [N-(2-Quinoline Carboxyl)-D-Cys-Gly-NMe-L--Cys-NMe-L--Cys(Me)]2 (Cysteine Thiol) Dilactone] (I: Quinaldoyl-[dC]G[NMeC][NMeC](Me) / II: Quinaldoyl-[dC]G[NMeC][NMeC](Me); thioester I:1-II:C, I:C-II:1; disulfide I:3-II:3)", "values": [{"measurement": "cytotoxic activity (in words)", "setting": "L1210 cell line", "value": "less potent cytotoxic activity"}]}
{"smiles": "CSC[C@H]1C(=O)SC[C@@H](NC(=O)c2cnc3ccccc3n2)C(=O)NCC(=O)N(C)[C@H]2CSSC[C@@H](C(=O)N1C)N(C)C(=O)CNC(=O)[C@H](NC(=O)c1cnc3ccccc3n1)CSC(=O)[C@H](CSC)N(C)C2=O", "note": "[Compound 27, [N-(2-Quinoxaline carboxyl)-D-Cys-Gly-NMe-L--Cys-NMe-L--CYS(Me)]2 (Cysteine Thiol) Dilactone] (I: Quinoxaline2carbonyl-[dC]G[NMeC][NMeC](Me) / II: Quinoxaline2carbonyl-[dC]G[NMeC][NMeC](Me); thioester I:1-II:C, I:C-II:1; disulfide I:3-II:3)", "values": [{"measurement": "cytotoxic activity (in words)", "setting": "L1210 cell line", "value": "less potent cytotoxic activity"}]}
{"smiles": "COc1ccc2nc(C(=O)N[C@@H]3CSC(=O)[C@H](CSC)N(C)C(=O)[C@@H]4CSSC[C@@H](C(=O)N(C)[C@@H](CSC)C(=O)SC[C@@H](NC(=O)c5nc6ccc(OC)cc6cc5O)C(=O)NCC(=O)N4C)N(C)C(=O)CNC3=O)c(O)cc2c1", "note": "[Compound 28, [N-(3-Hydroxy-6-methoxy-2-quinoline carboxyl)-D-Cys-Gly-NMe-L--CyS-NMe-L--Cys(Me)]2 (Cysteine Thiol) Dilactone] (I: {Quinaldoyl(3-OH,6-OMe)}-[dC]G[NMeC][NMeC](Me) / II: {Quinaldoyl(3-OH,6-OMe)}-[dC]G[NMeC][NMeC](Me); thioester I:1-II:C, I:C-II:1; disulfide I:3-II:3)", "values": [{"measurement": "cytotoxic activity (in words)", "setting": "L1210 cell line", "value": "potent activity"}]}
{"smiles": "CSC[C@H]1C(=O)SC[C@@H](NC(=O)OCC2c3ccccc3-c3ccccc32)C(=O)NCC(=O)N(C)[C@H]2CSSC[C@@H](C(=O)N1C)N(C)C(=O)CNC(=O)[C@H](NC(=O)OCC1c3ccccc3-c3ccccc31)CSC(=O)[C@H](CSC)N(C)C2=O", "note": "[Compound 32] (I: Fmoc-[dC]G[NMeC][NMeC](Me) / II: Fmoc-[dC]G[NMeC][NMeC](Me); thioester I:1-II:C, I:C-II:1; disulfide I:3-II:3)", "values": [{"measurement": "cytotoxic activity (in words)", "setting": "L1210 cell line", "value": "inactive"}]}
{"smiles": "CS[C@H]1SC[C@H]2C(=O)N(C)[C@@H](C(C)C)C(=O)OC[C@@H](NC(=O)c3cnc4ccccc4n3)C(=O)N[C@@H](C)C(=O)N(C)[C@@H]1C(=O)N(C)[C@@H](C(C)C)C(=O)OC[C@@H](NC(=O)c1cnc3ccccc3n1)C(=O)N[C@@H](C)C(=O)N2C", "note": "[echinomycin, reference compound]", "values": [{"measurement": "agent/base pair ratio required to unwind supercoiled DNA", "setting": "supercoiled ΦX174 DNA; form I to form II gel mobility", "value": 0.044, "unit": "agent/base pair ratio"}, {"measurement": "agent/base pair ratio for complete rewinding of supercoiled DNA", "setting": "supercoiled ΦX174 DNA; form II to form I gel mobility", "value": 0.22, "unit": "agent/base pair ratio"}, {"measurement": "inhibition of HIV-1 reverse transcriptase (in words)", "setting": "[3]", "value": "weak inhibitor"}, {"measurement": "solubility (in words)", "setting": "[2]", "value": "low solubility"}]}
